According to patent US20250188085A1, “COMPOSITIONS AND METHODS FOR INHIBITION OF RAS” (THERAS, INC., priority 2022, published 2025):
Like-named read-outs stand apart in the source and are kept apart here.

Tests used:
[1] = molecular target: T1, Avi-KRAS G12C (1-169) GppNHp/RAF1 RBD-3×FLAG (52-151) (Homo sapiens, UniProt P01116, G12C); assay: Raf1 RBD-KRAS G12C-GppNHp disruption (protein:protein interaction HTRF assay); format: biochemical
T1 construct: Avi-KRAS G12C (1-169) GppNHp/RAF1 RBD-3×FLAG (52-151)
Protocol: A protein: protein (PPI) interaction Homogeneous Time Resolved Fluorescence (HTRF) assay was used to determine the effectiveness of compounds of the present disclosure in disrupting KRAS G12C protein and effector (RAF1 or PIK3CA) binding.
The HTRF assay used the following reagents and proteins: 50 nM Avi-KRAS G12C Q25A (1-169) GppNHp/3×FLAG-PI3K CA (157-299); 50 nM Avi-KRAS G12C (1-169) GppNHp/RAF1 RBD-3×FLAG (52-151); 35 nM Avi-PI3K RBD-3×FLAG; Assay Buffer: 50 mM Tris pH 7.5, 100 mM NaCl, 5 mM MgCl2, 0.1% BSA, 0.01% Tween 20, 10% DMSO; Bead Buffer: 50 mM Tris pH 7.5, 0.01% Tween 20; Assay volume: 20 μL (384 well plate-low volume format); and Compound titration: 30-0.02 μM, 3× dilution series.
The HTRF assay employed the following protocol:
Compounds were dispensed in assay plate (384-well, Grenier Bione #784075) using Echo (model 555) with dose response settings: 200 nL final volume, titration from 100 μM as a 10-point dilution series. KRAS proteins were prepared in assay buffer, and dispensed on plates, 5 μL per well, then incubated for 1 h at room temperature, with 700 rpm shaking. RAF1 RBD and PI3K RBD CA were prepared in assay buffer, dispensed onto plates, 5 μL per well, and then incubated for 1 h at room temperature, with 700 rpm shaking. Reagent mix was then prepared and dispensed on plates, 10 μL per well, and then incubated for 1 h at room temperature, with 700 rpm shaking.
Plates were analyzed on an Envision plate reader using the following setting: Excitation 320 nm, Bandwidth 75 nm; Emission 615 nm, Bandwidth 85 nm; Gain 100%; Flashes 100; Lag 60 μs. Data was reported as percentage of activity, with DMSO as 100%. Data was plotted and analyzed using Prism 8.

pERK in NCI-H358 cells = assay: Cell-based pERK HTRF assay; conditions: 30 min incubation, read-out: pERK in NCI-H358 cell inhibition IC50
Protocol: pERK assays (Perkin Elmer) were used to determine the effectiveness of compounds of the present disclosure in disrupting KRAS G12C protein/effector signaling in cells.
On Day 1, cells (NCI-H358) were seeded into 96-well plates at 4×10^4 cells/well in complete growth media (RPMI, 10% FBS).
On Day 2, cells were treated with compounds at 0.25% DMSO. The source plate was created with compounds diluted in media at 5-fold the final assay concentration. The compounds were run in a 9-point concentration curve starting at 75 μM, with a 3-fold dilution between concentrations. 20 μL was transferred onto the cell plates (final volume in wells was 100 μL). Plates were harvested after 30 min incubation by aspirating media and adding kit-supplied 1× supplemented lysis buffer to all wells (75 μl per well). Plates were then placed on a plate shaker and incubated at 850 rpm for an additional 30 min.
Antibody mixture solution was prepared by diluting aliquoted d2 and Eu Cryptate antibodies 1:20 in kit supplied detection buffer, then mixed the diluted antibodies solutions (1:1 v:v). 4 μL of this solution was then added to a 384-well detection plate (Perkin Elmer; 6008230).
Samples were homogenized by pipetting up and down and then transferred (16 μL of cell lysates) from the 96-well cell culture plate to two wells of the HTRF 384-well detection plate containing the antibody solution. Plates were centrifuged (524 g for Imin) and allowed to incubate between 4 and 24 h at room temperature. Maximum signal is reached after 4 h incubation time and remains stable over a period of 24 hours. Therefore, readings can be made between 4 and 24 h of incubation. Plates were centrifuged again (524 g for Imin) and analyzed on the En Vision plate reader using the following settings: Excitation 320 nm, Bandwidth 75 nm; Emission 615 nm, Bandwidth 85 nm; Gain 100%; Flashes 100; Lag 60 μs.

[2] = molecular target: T2, GppNHp-loaded KRAS4b (amino acids 1-169) G12C/C118S protein (Homo sapiens, UniProt P01116, C118S/G12C); assay: Covalent cysteine 12 modification by MALDI-TOF MS, GppNHp-loaded KRAS G12C; format: binding; conditions: 15 minutes reaction time point
T2 construct: KRAS4b (amino acids 1-169) G12C/C118S protein; made in house
Protocol: (§1) Reaction: 1 μM of GppNHp-, GTP-, or GDP-loaded KRAS4b (amino acids 1-169) G12C/C118S protein (produced in-house by Protein Expression Laboratory, FNLCR/Leidos Biomed) in 20 mM 4-(2-hydroxyethyl)-1-piperazineethanesulfonic acid (HEPES) buffer containing 150 mM NaCl, 1 mM MgCl2, pH 7.3 was prepared freshly before assay. Ten-μL aliquots of protein were dispensed onto low volume 384-well plate, then 375 nL DMSO, and 25 nL of tested compounds from 5 mM DMSO stocks were added to appropriate wells using ECHO 555 acoustic liquid handler (Labcyte Inc.). For each reaction/assay, three blanks were prepared by mixing 10 μL of protein solution with 400 nL DMSO. The contents of the wells were carefully mixed by aspiration, and then each plate was sealed with an adhesive cover, centrifuged at 2000 g for 1 minute, and kept in the dark at room temperature until 5 min, 15 min, 30 min, or 2 h collections.
(§2) Target pretreatment: Before each assay MALDI target (Bruker MPT 384 ground steel BC) was pre-treated by pipetting on each spot 0.75 μL of saturated sinapinic acid in acetonitrile (ACN).
(§3) Sample preparation: At collection time point, 2 μL of reaction mixtures were pipetted out into 20 μL MALDI matrix solution (saturated solution of sinapinic acid in 1:1 ACN:water solution containing 0.75% trifluoroacetic acid (TFA)) deposited on 384 well polypropylene plate. Resulting solution was mixed by aspiration, centrifuged at 2000 g for 1 minute, then 1 μL aliquots were dispensed on pre-treated MALDI target using Beckman Coulter Biomek FXP 96/384-Span-8 Laboratory Automation Workstation. Finally, the MALDI target was dried under mild vacuum to produce spots with fine crystalline structure.
(§4) Measurements: MALDI-TOF measurements were performed on a Bruker Daltonics rapiflex Tissuetyper TOF-TOF mass spectrometer using linear mode and mass range from 18.6 to 21.6 kDa. Detector gain was set to 3.3× (483 V), sample rate to 5 GS/s, real time smoothing to medium (175 MHz), laser smart beam pattern was set to: “MS Thin Layer M5”, and the laser frequency was 10000 Hz. Spectra were automatically collected using custom Auto Xecute method. Laser power was auto adjusted using fuzzy control. The peak selection range was set to be between 19000 and 21500 Da. Peak evaluation uses half width parameter set to be smaller than 40 Da for processed spectrograms (centroid peak detection; smoothed by SavitzkyGolay algorithm using 7 m/z width and 2 cycles; baseline was subtracted using median algorithm with flatness 1 and median level 0.01). Fuzzy control used Proteins/Oligonucleotides protocol with minimum half width 1/10 times above threshold. Up to 40000 satisfactory shots were collected in 10000 shot steps. Dynamic termination was implemented to finish data collection when peak signal/noise ratio was reaching value of 50.
(§5) Spectra processing: Spectra were smoothed by SavitzkyGolay algorithm using 7 m/z width and three cycles. Centroid peak detection algorithm was used with signal to noise threshold set to 6, relative intensity threshold 4%, peak width 10 m/z and median baseline subtraction using flatness of 1 and median level of 0.01. Peak intensity and area under the peak were evaluated and recorded for all peaks between 19,300 Da and 21,550 Da.
(§6) Calculation of percent modification: Percent modification was calculated as a ratio of peak height for protein modified by compound to sum of peak height of remaining protein plus peak height for protein modified by compound. If multiple modifications were observed each was calculated as a ratio of peak height for given modification versus sum of peak heights for all observed protein species. Data reported in Table 5 are from 15 minutes reaction time point.

[3] = molecular target: T3, GDP-loaded KRAS4b (amino acids 1-169) G12C/C118S protein (Homo sapiens, UniProt P01116, C118S/G12C); assay: Covalent cysteine 12 modification by MALDI-TOF MS, GDP-loaded KRAS G12C; format: binding; conditions: 15 minutes reaction time point
T3 construct: KRAS4b (amino acids 1-169) G12C/C118S protein; made in house
Protocol: as §1, §2, §3, §4, §5, §6

IC50 [1] | IC50 (pERK in NCI-H358 cells; Homo sapiens, NCI-H358, 0.5 h) | GppNHp-KRAS G12C percent of modification [2] | GDP-KRAS G12C percent of modification [3] | IC50 (pERK in NCI-H358 cells) | Compound
≤ 500 nM | ≤ 100 nM | C (10%≤modification <50%) | A (percent of modification ≥70%) |  | C=CC(=O)N1C[C@@H](C)[C@@H](Oc2nc(OC[C@@]34CCCN3C[C@H](F)C4)nc3c(F)c(-c4ccc(F)c5sc(N)nc45)c(C(F)(F)F)cc23)C1 (atropisomer, axis not shown) [Compound 27]
500 to 5000 nM | > 1000 nM | C (10%≤modification <50%) | A (percent of modification ≥70%) |  | C=CC(=O)N1CC[C@@H](Oc2nc(OC[C@@]34CCCN3C[C@H](F)C4)nc3c(F)c(-c4ccc(F)c5sc(N)nc45)ncc23)C1 [Compound 43]
5000 to 20000 nM |  | D (percent of modification <10%) | D (percent of modification <10%) | > 1000 nM | C=CC(=O)N1C[C@H](Oc2nc(OC[C@@]34CCCN3C[C@H](F)C4)nc3c(F)c(-c4ccc(F)c5sc(N)nc45)c(C(F)(F)F)cc23)C[C@@H]1C (atropisomer, axis not shown) [Compound 33]
> 20000 nM | > 1000 nM | D (percent of modification <10%) | D (percent of modification <10%) |  | C=CC(=O)N1CC[C@H](Oc2nc(OC[C@@]34CCCN3C[C@H](F)C4)nc3c(F)c(-c4ccc(F)c5sc(N)nc45)c(Cl)cc23)C1 (atropisomer, axis not shown) [Compound 4]
500 to 5000 nM |  | C (10%≤modification <50%) | A (percent of modification ≥70%) | 100 to 1000 nM | C=CC(=O)N1CC[C@@H](Oc2nc(OC[C@@H]3CC(C)(C)CN3C)nc3c(F)c(-c4ccc(F)c5sc(N)nc45)c(C(F)(F)F)cc23)C1 (atropisomer, axis not shown) [Compound 16]
5000 to 20000 nM |  | D (percent of modification <10%) | D (percent of modification <10%) | > 1000 nM | C=CC(=O)N1CC[C@H](Oc2nc(OC[C@@]34CCCN3C[C@H](F)C4)nc3c(F)c(-c4ccc(F)c5sc(N)nc45)c(C(F)(F)F)cc23)C1 (atropisomer, axis not shown) [Compound 5]
500 to 5000 nM | 100 to 1000 nM | C (10%≤modification <50%) | A (percent of modification ≥70%) |  | C=CC(=O)N1CC(Oc2nc(OC[C@@H]3CCCN3C)nc3c(F)c(-c4ccc(F)c5sc(N)nc45)c(Cl)cc23)C1 [Compound 1]
500 to 5000 nM |  | D (percent of modification <10%) | D (percent of modification <10%) | 100 to 1000 nM | C=CC(=O)N1C[C@H](Oc2nc(OC[C@@]34CCCN3C[C@H](F)C4)nc3c(F)c(-c4ccc(F)c5sc(N)nc45)c(C(F)(F)F)cc23)C[C@H]1C (atropisomer, axis not shown) [Compound 38]
≤ 500 nM | ≤ 100 nM | A (percent of modification ≥70%) | A (percent of modification ≥70%) |  | C=CC(=O)N1CC[C@@H](Oc2nc(OC[C@@]34CCCN3C[C@H](F)C4)nc3c(F)c(-c4ccc(F)c5sc(N)nc45)c(C(F)(F)F)cc23)[C@H]1C [Compound 29, 1-((2R,3R)-3-((7-(2-amino-7-fluorobenzo[d]thiazol-4-yl)-8-fluoro-2-(((2R,7aS)-2-fluorotetrahydro-1H-pyrrolizin-7a (5H)-yl)methoxy)-6-(trifluoromethyl)quinazolin-4-yl)oxy)-2-methylpyrrolidin-1-yl) prop-2-en-1-one]
500 to 5000 nM |  | C (10%≤modification <50%) | C (10%≤modification <50%) | 100 to 1000 nM | C=CC(=O)N1C[C@@H](C)[C@@H](Oc2nc(OC[C@@]34CCCN3C[C@H](F)C4)nc3c(F)c(-c4ccc(F)c5sc(N)nc45)c(C(F)(F)F)cc23)C1 (atropisomer, axis not shown) [Compound 39]
